In one test the test system is DSB end resection. The test can be described thus: Western blot of DSB end resection with etoposide in PEO4 cells. It counts as cell-based. The note with it: for Chk1 phosphorylation with/without etoposide: 5 μM etoposide 4 hr; for RPA32 phosphorylation, drug alone: 30 μM DB4, 1 μM triapine or 5 μM etoposide; for etoposide-induced RPA32 phosphorylation: pre-treated 1 hr, then 5 μM etoposide 4 hr. The procedure:
PEO1 cells were treated with 30 μM DB4 or 1 μM triapine for indicated times, pulsed with EdU for 1 hr and subsequently assayed for DNA synthesis inhibition as described in FIG. 2B. The bivariate plots of Alexa Fluor 488 and PE-Cy5 were gated to determine % S phase cells. […] PEO4 cells were treated with 30 μM DB4 or 1 μM triapine for indicated times, pulsed with EdU for 1 hr and subsequently assayed for DNA synthesis inhibition as described in FIG. 2B. The bivariate plots of Alexa Fluor 488 and PE-Cy5 were gated to determine % S phase cells. […] The bivariate plots of Alexa Fluor 488 and PE-Cy5 shown in FIG. 6A and FIG. 6B were gated to determine % cells in G1, S, and G2/M phases. […] PEO4 cells were treated with 30 μM DB4 or 1 μM triapine for various time periods and subjected to western blot analysis for the levels of cyclin A2, p-CDK1/2, p-H1, p-Chk1, and HSC70. The HSC70 protein level was used as a loading control. Cropped gel images of protein bands are presented. Cyclin A2, p-CDK1/2, and p-H1 bands were from re-probing the same blot. p-Chk1 and HSC70 bands were from re-probing the same duplicated blot. […] The CDK2 activity is expressed by the percentage of the p-HI levels relative to that of the 0 hr control is shown. […] Protein was analyzed by western blotting for p-Chk1, p-ATR, p-RPA32, γH2AX, and HSC70. Cropped gel images of protein bands are presented. All protein bands were from re-probing the same blot. DSB end resection is assessed by the level of p-RPA32.
To investigate the effects of DB4 on DSB end resection, the level of RPA32 phosphorylation, indicative of CDK2-dependent DSB end resection, was determined.
The methodology was described previously (Lin Z P et al., 2014, Molecular Cancer Res, 12:381-393; Ratner E S et al., 2016, Br J Cancer, 114:777-786). The anti-HSC70 antibody was purchased from Santa Cruz (Santa Cruz, CA). Anti-cyclin A2, anti-phospho-ATR (Thr-1981), anti-phospho-Chk1 (Ser-345), anti-phospho-CDK1/2 (Tyr-15), and anti-Y-H2AX (Ser-139) antibodies were from Cell Signaling (Danvers, MA). Anti-phospho-RPA32 (S4/S8) and anti-BRCA2 antibodies were from Bethyl Laboratories (Montgomery, TX). Anti-phospho-histone H1 antibody was from Millipore-Sigma (Burlington, MA). To avoid the cross-reaction of secondary antibodies with previously probed primary antibodies, blots were stripped and re-probed with next primary antibodies raised in a different species in an alternate fashion. All images were acquired and processed using the G: BOX gel documentation system and the GeneSnap software (Syngene, Frederick, MD). Brightness and contrast of images were applied equally across the entire gel/blot image and to controls. Images of protein bands were cropped and only brightness-adjusted using the PowerPoint software (Microsoft, Redmond, WA). Quantification of the protein band intensity was performed using the ImageJ software (NIH, Bethesda, MD).
(In general: In western blotting, separated proteins are transferred to a membrane and probed.)

Another test relates to SKOV3 xenografts. Briefly: Subcutaneous growth of SKOV3 xenografts. The format is in vivo, NCG mice. The note with it: i.p., 4 weeks; olaparib 50 mg/kg qd, DB4 10 mg/kg q2d. How it is done:
SCID-Beige mice implanted ip with PEO4ip cells were treated daily (qd) with DB4 (10 mg/kg), olaparib (50 mg/kg), and the DB4-olaparib combination for 4 weeks. Kaplan Meier analysis was performed to determine the survival time of mice following treatments. Statistical significance was determined by the Mantel-Cox test comparing the control with each treatment group (N=4-5). […] DB4 given every two days (q2d) in the DB4-olaparib combination for 4 or 6 weeks (n=4-5). […] NOD CRISPR Prkdc Il2r Gamma (NCG) mice implanted sc with SKOV3 cells were treated as described in FIG. 10C for 4 weeks during which the tumor size was measured. Statistical significance was determined by the Wilcoxon matched-pairs signed test comparing the control with each treatment group and comparing between treatment groups. […]
The efficacy of the combination of DB4 and olaparib to treat SKOV3 tumor xenografts, as determined by the tumor size, was ascertained in a subcutaneous (s.c.) mouse model (Ratner E S et al., 2016, Br J Cancer, 114:777-786; Lin Z P et al., 2018, PLOS One, 13:e0207399). […]
The progression of PEO4ip tumor xenografts in mice was evaluated by measuring the size of the circumference at the lower one-third of the abdominal area with the mouse head positioned upward. […] The growth of SKOV3 tumor xenografts was evaluated by the size of s.c. tumor using a digital caliper. […]

For the compound `NC(=S)NN=Cc1ncccc1N` [triapine, 3-aminopyridine-2-carboxaldehyde-thiosemicarbazone, reference compound], in the test with DSB end resection, the ATR phosphorylation result is “induced ATR and Chk1 phosphorylation independently of etoposide treatment”; the “Chk1 phosphorylation with/without etoposide” value was “induced ATR and Chk1 phosphorylation independently of etoposide treatment”; the “RPA32 phosphorylation, drug alone” value is “induced a minor RPA32 phosphorylation”; the “etoposide-induced RPA32 phosphorylation” value is given as “blocked phosphorylation of RPA32, induced by etoposide”.

Turning to `O=C(c1cc(Cc2n[nH]c(=O)c3ccccc23)ccc1F)N1CCN(C(=O)C2CC2)CC1` [olaparib, reference compound], the “inhibition of subcutaneous growth of SKOV3 xenografts (tumor size)” value with SKOV3 xenografts is on record as “moderately but significantly inhibited”.

Turning to `C=CCn1c(SCc2cccc(Cl)c2)nnc1C1CCN(Cc2nc3ccccc3s2)CC1` [DB4, 2-[(4-{4-allyl-5-[(3-chlorobenzyl)thio]-4H-1,2,4-triazol-3-yl}-1-piperidinyl)methyl]-1,3-benzothiazole], in the test on DSB end resection, the ATR phosphorylation entry is listed as “weakly induce ATR phosphorylation”; the “Chk1 phosphorylation with/without etoposide” value is recorded as “only synergized with etoposide to induce Chk1 phosphorylation”; the “RPA32 phosphorylation, drug alone” value was “no effect on basal RPA32 phosphorylation”; the “etoposide-induced RPA32 phosphorylation” value is “augmented etoposide-induced RPA32 phosphorylation”. Moreover, the “inhibition of subcutaneous growth of SKOV3 xenografts (tumor size)” value in the test on SKOV3 xenografts was “moderately but significantly inhibited”.
